Experiments:
[1] = tested on: ET1 (MphR(A)-VP16) / PETR promoters; assay: SEAP reporter assay, CHO lines stably expressing ET1 (CHO-ET11, CHO-ET12) transiently transfected with PETR-SEAP plasmids; format: cell-based; conditions: for SEAP Production (%) +EM: 2 μg/ml EM, −EM = 100; for SEAP activity [U/L] + EM: erythromycin 2 μg/ml
Experimental: (§1) Chinese hamster ovary cells (CHO-K1, ATCC: CCL 61), and HeLa cells (ATCC: CRL-7923) as well as stable cell lines derived thereof were cultured as described before (Fussenegger et al., 1998, Nat. Biotechnol. 16,468-472) in the presence of appropriate antibiotics: G418 400 μg/ml; zeocin 100 μg/ml. Optimized CaPO4 protocols were used for high efficiency transient transfection of all cell lines (Fussenegger et al., 1998. Nat. Biotechnol. 16: 468-472). Transiently transfected cells were routinely analyzed after 48 h for CFP or SEAP expression using fluorescence microscopy and p-nitrophenolphosphate-based light absorbance timecourse, respectively, as described before (Fussenegger et al., 1998, Nat. Biotechnol. 16, 468-472; Berger et al., 1988, Gene 66, 1-10 b). For construction of stable CHO-ET1 and CHO-Triplet42 cell lines, CHO-Ki and CHO-TWIN1108 (Disclosed in PCT application no. 00/65080) were cotransfected with pWW35 and pZeoSV2 (invitrogen). CHO-ET11-SEAP was constructed by cotransfection of pWW38 and pSV2neo (Clontech) into CHO-ET11. The mixed populations were cloned using FACS-mediated single-cell-sorting (FACStar^Plus; Beckton Dickinson). For assessment of dose-response characteristics of PETR3-regulated gene expression, CHO-ET11-SEAP were cultured at cell densities of 50,000/ml for 48 h at various EM concentrations.
Other antibiotics were eluted from antibiotic test discs (Mast Diagnostica GmbH, Reinfeld, Germany, or bioMérieux, Geneva Switzerland) in cell culture medium at 37° C. for 12 h to reach a final concentration of 30 μg/ml. All macrolide antibiotics were used at a 2 μg/ml concentration unless indicated otherwise.
Two representative clones, CHO-ET11 and CHO-ET12, were chosen at random among ET1-expressing CHO cell clones stably transfected with a constitutive ET1 expression construct (pWW35).
Access to alternative effective antibiotics would expand the spectrum of regulating agents available for future use in human cell and gene therapy. Accordingly, several commercially available antibiotic sources were tested for their potential to regulate the ET1/PETR3 system as shown below in Table 3.
The effect of the different spacer length in promoters PETR2 and PETR7-PETR11 were examined by transfecting the corresponding plasmids (pWW37, pBP10-pBP14) into a CHO cell line stably transfected with the transactivator ET1 (MphR(A)-VP 16, see example 1).

[2] = tested on: ET1/PETR3; assay: Dose-response of EM-dependent SEAP expression in stable CHO-ET11-SEAP; format: cell-based, Chinese hamster ovary cells; conditions: 48 h
Experimental: The cell line CHO-ET1-SEAP1 was grown for 48 h at different EM concentrations (ng/ml). The relative SEAP production is shown over 5 orders of magnitude of EM concentration.
as §1
Varying the concentrations of EM used for induction could control the levels of PETR3-regulated gene expression. This was assessed using a stable CHO cell line (CHO-ET11-SEAP) which expresses PETR3-SEAP (pWW38) and stably contains also a constitutive ET1 expression vector (pWW35). […] Increasing EM concentration above 10 ng/ml leads to a gradual decrease in SEAP expression, with lowest SEAP expression levels at EM concentrations over 1000 ng/ml. […]

[3] = tested on: transrepressors MphR(A) or ET4 (MphR(A)-KRAB) / PETRON promoters; assay: Erythromycin-inducible EON system, SEAP assay in transiently cotransfected CHO-K1; format: cell-based; conditions: for SEAP activity [U/L] +Erythromycin [2 μg/ml]: CHO-K1, 48 hrs, title: erythromycin (2 μg/ml)
Source text: The classical ET/PETR system belongs to the “OFF” family of regulation concepts since gene expression is activated upon withdrawal of the regulating antibiotic. However, in some applications such as gene therapy and tissue engineering an “ON” system that is induced upon addition of macrolide antibiotics is more desirable. We therefore constructed a new MphR(A)-based binary EON system which consists of a PETRON promoter and a set of two different transrepressors. Two different PETRON promoters were constructed: PETRON4 consists of an ETR4 (four tandem repetitions of ETR, SEQ ID NO 26) placed downstream of the strong viral SV40 promoter. PETRON8 contains eight tandem repetitions (SEQ ID NO 27) of ETR instead of four.
Transrepressors such as ET4 (SEQ ID NO 10, example 1, FIG. 2), which consists of a protein fusion between MphR(A) and the KRAB silencing domain of the human kox-1 gene (Deuschle et al., 1995, Mol. Cell Biol. 15: 1907-1914) or MphR(A) alone, bind to ETR in front of PSV40 and block transcription of this promoter. Besides sterical transcription blocking, the silencing domain of ET4 can additionally downregulate PSV40 activity.
The ETR4 sequence (SEQ ID NO: 26) was excised from the WEBE Gene vector (custom synthesized by Operon Technologies Inc.) by SfuI and EcoRI and ligated into the corresponding sites of pMF208 (Fussenegger et al., 2000. supra) thus resulting in plasmid pWW55 (FIG. 7) containing the PSV40-ETR4-SEAP cassette. The combination of PSV40 and ETR4 is designated PETRON4. For construction of PETRON8, ETR4 was excised (PmeI/EcoRI) from pWW55 and cloned into pWW55 restricted with (EcoRV/EcoRI) thus resulting in SV40-ETR8-SEAP (pWW56).
ET4, the MphR(A)-KRAB fusion protein was constructed as described in example 1 (SEQ ID NO 10). For expression of MphR(A) pWW29 (SEQ ID NO 4) was used. The stop codon of the original MphR(A) has been mutated in order to allow fusion to the various transactivating and transrepressing domains. Because of the mutation of this stop codon the mphR(A) gene contained in pWW29 is terminated a few bp downstream at the next stop codon encountered in the vector sequence. However, the resulting MphR(A) protein preserves its role as transcriptional repressor in the EON configuration.
The regulation performance of PETRON4 (PSV40-ETR4-SEAP-pA; pWW55) and PETRON8 (PSV40-ETR8-SEAP-pA; pWW56) was assessed in CHO-K1 cells harboring the MphR(A) expression vector pWW29 (PEF1α-E-pA) (Table 7).

Structure (SMILES): CC[C@H]1OC(=O)[C@H](C)[C@@H](O[C@H]2C[C@@](C)(OC)[C@@H](O)[C@H](C)O2)[C@H](C)[C@@H](O[C@@H]2O[C@H](C)C[C@H](N(C)C)[C@H]2O)[C@](C)(O)C[C@@H](C)C(=O)[C@H](C)[C@@H](O)[C@]1(C)O [Erythromycin]
- SEAP Production (%) +EM ([1]; CHO-ET11 + PETR3-SEAP (pWW38)): 1.75 ± 0.1%
- SEAP production [%] ([1]; CHO-ET11 transiently transfected with pWW38, 48 h, antibiotic 2 μg/ml, no macrolide = 100): 1.7 ± 0.1%
- SEAP Production (%) +EM ([1]; CHO-ET12 + PETR3-SEAP (pWW38)): 4.67 ± 0.8%
- Reversibility of EM-responsive SEAP regulation ([1]; both CHO-ET1 derivatives, repeated cycles of addition and withdrawal): fully reversible
- SEAP activity [U/L] + EM ([1]; pBP10 (PETR7, 2 bp) in CHO stably transfected with ET1, 48 h): 4.2 ± 1.0 U/L
- SEAP activity [U/L] + EM ([1]; pBP12 (PETR9, 6 bp) in CHO stably transfected with ET1, 48 h): 8.4 ± 1.6 U/L
- SEAP activity [U/L] + EM ([1]; pBP13 (PETR10, 8 bp) in CHO stably transfected with ET1, 48 h): 19.7 ± 1.4 U/L
- SEAP activity [U/L] + EM ([1]; pWW37 (PETR2, 0 bp) in CHO stably transfected with ET1, 48 h): 8.3 ± 0.2 U/L
- EM concentration at which ET1/PETR3 is fully induced [2]: < 10 ng/mL
- EM concentration at which ET1/PETR3 is repressed (lowest SEAP expression) [2]: > 1000 ng/mL
- EM concentration window in which gene expression can be adjusted to different levels [2]: 10 to 1000 ng/mL
- SEAP activity [U/L] +Erythromycin [2 μg/ml] ([3]; PETR-ON4 + ET4): 35.7 ± 4.7 U/L
- SEAP activity [U/L] +Erythromycin [2 μg/ml] ([3]; PETR-ON4 + MphR(A)): 175.7 ± 6.2 U/L
- Induction factor (expression in induced state to expression in repressed state) ([3]; PETR-ON4 repressed by MphR(A)): ~5
- SEAP activity [U/L] +Erythromycin [2 μg/ml] ([3]; PETR-ON8 + ET4): 55.4 ± 1.8 U/L
- SEAP activity [U/L] +Erythromycin [2 μg/ml] ([3]; PETR-ON8 + MphR(A)): 81.6 ± 4.3 U/L
- Induction factor (expression in induced state to expression in repressed state) ([3]; PETR-ON8 repressed by MphR(A)): ~5

From patent US7273723B2, “Antibiotic-based gene regulation system” (priority 2001, dated 2007)
